From US20240050585A1, “B7-H4-TARGETED ANTIBODY-DRUG CONJUGATES FOR THE TREATMENT OF CANCER” (priority 2022, published 2024)

Key:
[1] = test system: OV2423 patient derived ovarian cancer; assay: Tumor growth response in OV2423 patient derived ovarian cancer xenograft mouse model; conditions: 4.54/0.150 mg/kg (antibody/payload) intravenously on day 1; Day 22; female BALB/c nude mice
Description: Female BALB/c nude mice were implanted subcutaneously with OV2423 patient derived ovarian cancer tumor fragments (˜2-3 mm^3 per mouse). Animals were randomized into treatment groups when tumor volumes were between 101-230 mm^3 (mean=155mm^3/group) (n=8/group). Vehicle, palivizumab isotype control conjugate (prepared as described in US Patent Application No. 2022/0233707A1, 4.54/0.150 mg/kg) and XMT-1660 (4.61/0.150 mg/kg, DAR 6) were dosed intravenously on day 1 (all doses are given by antibody/payload).

[2] = test system: mBR9013 syngeneic breast cancer; assay: Tumor growth response in mBR9013 syngeneic breast cancer mouse model; conditions: for TGI (tumor volume compared to vehicle control): day 15, female FVB/NJ mice
Description: Female FVB/NJ mice were implanted subcutaneously with mBR9013 tumor fragments (2-3 mm^3). Animals were randomized into treatment groups when tumor volumes were between 96-277 mm^3 (mean=148 mm^3/group) (n=8/group). […] Vehicle, isotype control conjugate and XMT-1660 were dosed intravenously.

palivizumab isotype control conjugate
TGI (tumor volume compared to vehicle control) [1]: 24.8% | TGI (tumor volume compared to vehicle control) ([2]; 1.51/0.050 mg/kg (antibody/payload) intravenously on day 1): −7.91% | TGI (tumor volume compared to vehicle control) ([2]; 4.54/0.150 mg/kg (antibody/payload) intravenously on day 1): 32.02% | body weight loss or clinical observations ([2]; mouse, in vivo): No significant body weight loss or clinical observations
